This passage reports IC50 results from patent US20090311217A1, “3-SUBSTITUTED-1H-INDOLE COMPOUNDS, THEIR USE AS MTOR KINASE AND PI3 KINASE INHIBITORS, AND THEIR SYNTHESES” (priority 2008, published 2009).

What is called IC50 is the concentration that gives 50% inhibition.

Structures are written as SMILES.

What all share (format): biochemical
Assay [1] deals with PI3K-alpha (Homo sapiens, UniProt P42336). The experiment in a line: PI3K-alpha fluorescence polarization assay. To be noted: read-out: PI3Kα Avg. IC50. (In general: Polarisation of emitted light reports the rotation of a fluorescent probe.)
Sequence of PI3K-alpha (P42336 whole entry, species assumed): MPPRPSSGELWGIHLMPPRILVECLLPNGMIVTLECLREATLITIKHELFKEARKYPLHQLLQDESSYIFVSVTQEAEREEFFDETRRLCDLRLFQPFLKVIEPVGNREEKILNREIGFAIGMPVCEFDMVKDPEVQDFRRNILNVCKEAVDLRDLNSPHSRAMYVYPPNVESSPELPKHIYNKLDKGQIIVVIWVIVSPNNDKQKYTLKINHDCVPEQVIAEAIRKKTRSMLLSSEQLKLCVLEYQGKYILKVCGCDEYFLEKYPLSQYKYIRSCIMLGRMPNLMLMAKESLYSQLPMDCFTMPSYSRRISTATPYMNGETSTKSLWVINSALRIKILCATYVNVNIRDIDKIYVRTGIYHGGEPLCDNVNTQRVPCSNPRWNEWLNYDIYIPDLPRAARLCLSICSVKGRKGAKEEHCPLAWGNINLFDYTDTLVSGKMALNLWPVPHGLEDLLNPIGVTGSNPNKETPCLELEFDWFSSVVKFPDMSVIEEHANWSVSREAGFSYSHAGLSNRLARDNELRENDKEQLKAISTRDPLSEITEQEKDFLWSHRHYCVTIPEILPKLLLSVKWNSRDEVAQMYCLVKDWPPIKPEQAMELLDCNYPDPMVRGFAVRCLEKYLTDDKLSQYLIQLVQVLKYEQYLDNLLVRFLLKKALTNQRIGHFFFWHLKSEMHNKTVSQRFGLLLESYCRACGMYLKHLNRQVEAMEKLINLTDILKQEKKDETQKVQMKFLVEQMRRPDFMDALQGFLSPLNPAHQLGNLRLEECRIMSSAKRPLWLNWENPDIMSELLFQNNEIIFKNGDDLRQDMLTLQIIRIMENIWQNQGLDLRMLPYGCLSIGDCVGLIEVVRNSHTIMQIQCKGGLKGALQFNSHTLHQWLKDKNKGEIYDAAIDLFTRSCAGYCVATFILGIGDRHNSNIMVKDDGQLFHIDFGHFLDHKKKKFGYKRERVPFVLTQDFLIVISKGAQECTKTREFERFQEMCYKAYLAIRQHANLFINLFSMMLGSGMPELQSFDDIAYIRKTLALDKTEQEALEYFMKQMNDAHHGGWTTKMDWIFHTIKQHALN
Sequence of PI3K-alpha (P27986 whole entry partner, species assumed): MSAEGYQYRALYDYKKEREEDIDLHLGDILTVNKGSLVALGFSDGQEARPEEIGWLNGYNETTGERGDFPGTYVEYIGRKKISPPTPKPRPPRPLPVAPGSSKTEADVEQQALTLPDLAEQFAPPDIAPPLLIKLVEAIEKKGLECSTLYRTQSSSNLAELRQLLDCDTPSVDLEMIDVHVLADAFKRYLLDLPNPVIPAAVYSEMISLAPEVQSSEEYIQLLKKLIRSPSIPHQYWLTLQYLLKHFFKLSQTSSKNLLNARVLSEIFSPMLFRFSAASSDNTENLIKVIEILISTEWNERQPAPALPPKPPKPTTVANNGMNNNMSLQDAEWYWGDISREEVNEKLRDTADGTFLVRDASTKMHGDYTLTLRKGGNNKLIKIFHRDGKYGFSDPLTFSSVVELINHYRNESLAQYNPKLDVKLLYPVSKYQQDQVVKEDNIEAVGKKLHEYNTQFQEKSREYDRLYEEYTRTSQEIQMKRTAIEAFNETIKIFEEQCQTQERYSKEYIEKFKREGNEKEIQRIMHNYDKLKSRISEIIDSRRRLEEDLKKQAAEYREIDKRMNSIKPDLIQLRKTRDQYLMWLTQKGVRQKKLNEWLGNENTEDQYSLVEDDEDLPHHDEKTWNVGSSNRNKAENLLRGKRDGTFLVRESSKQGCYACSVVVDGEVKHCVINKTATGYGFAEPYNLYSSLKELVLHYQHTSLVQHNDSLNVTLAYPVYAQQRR
The target of assay [2] is PI3K-gamma (Homo sapiens, UniProt P48736). The experiment in a line: PI3K-gamma fluorescence polarization assay. To be noted: PI3Kγ Avg. IC50. The essentials:
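Reactions in 5 mM HEPES pH 7, 2.5 mM MgCl2, 25 μM ATP with 2.5 μM diC8-PI(4,5)P2 and 5 ng enzyme, 1 h at 25° C, then EDTA quench. Product detected by FP using GST-GRP1 PH domain (100 nM) and BODIPY-TMR-IP4 tracer (5 nM); final DMSO 0.8%.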

Assay [3] concerns the target T1, human TOR (Homo sapiens, UniProt P42345).
T1 construct: FLAG
The experiment in a line: mTOR enzyme assay (DELFIA, His6-S6K substrate). To be noted: read-out: mTOR Kinase Avg. IC50.

Sequence of PI3K-gamma (P48736 whole entry, species assumed, the tested form may be a part): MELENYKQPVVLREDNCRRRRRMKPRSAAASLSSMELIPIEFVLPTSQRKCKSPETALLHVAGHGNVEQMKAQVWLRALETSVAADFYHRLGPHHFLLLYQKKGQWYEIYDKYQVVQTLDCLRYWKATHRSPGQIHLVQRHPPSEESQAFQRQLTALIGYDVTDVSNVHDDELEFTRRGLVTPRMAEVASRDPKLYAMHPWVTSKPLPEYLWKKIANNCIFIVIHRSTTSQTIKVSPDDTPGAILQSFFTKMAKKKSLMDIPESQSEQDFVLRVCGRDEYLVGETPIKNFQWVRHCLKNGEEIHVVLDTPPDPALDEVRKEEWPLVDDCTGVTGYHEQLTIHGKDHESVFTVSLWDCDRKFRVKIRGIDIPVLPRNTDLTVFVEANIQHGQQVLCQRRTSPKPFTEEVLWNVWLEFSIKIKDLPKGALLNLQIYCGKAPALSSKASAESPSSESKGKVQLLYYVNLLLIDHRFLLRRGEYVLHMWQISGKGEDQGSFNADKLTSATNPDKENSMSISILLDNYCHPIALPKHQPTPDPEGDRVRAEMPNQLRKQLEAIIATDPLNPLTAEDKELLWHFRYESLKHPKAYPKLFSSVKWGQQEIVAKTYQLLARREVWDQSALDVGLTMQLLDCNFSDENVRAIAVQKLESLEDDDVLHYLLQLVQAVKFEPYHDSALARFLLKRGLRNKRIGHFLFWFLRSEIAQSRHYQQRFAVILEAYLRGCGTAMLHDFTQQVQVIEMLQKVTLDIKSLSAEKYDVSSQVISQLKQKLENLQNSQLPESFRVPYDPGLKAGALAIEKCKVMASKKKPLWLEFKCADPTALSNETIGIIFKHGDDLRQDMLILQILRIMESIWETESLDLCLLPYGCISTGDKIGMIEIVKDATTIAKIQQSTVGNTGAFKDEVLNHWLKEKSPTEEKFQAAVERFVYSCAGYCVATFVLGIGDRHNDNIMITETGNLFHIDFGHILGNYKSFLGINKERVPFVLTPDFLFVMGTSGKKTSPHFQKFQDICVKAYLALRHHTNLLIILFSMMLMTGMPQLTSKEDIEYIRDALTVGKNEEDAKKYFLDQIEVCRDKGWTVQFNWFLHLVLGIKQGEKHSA

As for `COc1ccc2[nH]c(-c3c(C)nn(C)c3C)c(/C=C3\Oc4ccc(NC(=O)Nc5cccnc5)cc4C3=O)c2c1` [Compound 635, 1-[(2Z)-2-{[5-methoxy-2-(1,3,5-trimethyl-1H-pyrazol-4-yl)-1H-indol-3-yl]methylene}-3-oxo-2,3-dihydro-1-benzofuran-5-yl]-3-pyridin-3-ylurea], the IC50 amounted to 0.5 nM in assay [1], 2.5 nM in assay [2] and 5 nM in assay [3].

Take `CNC(=O)Nc1ccc2c(c1)C(=O)/C(=C/c1c(N3CCN(C)CC3)n(CCN3CCN(C)CC3)c3ccc(OC)cc13)O2` [Compound 636, 1-[(2Z)-2-({5-methoxy-2-(4-methylpiperazin-1-yl)-1-[2-(4-methylpiperazin-1-yl)ethyl]-1H-indol-3-yl}methylene)-3-oxo-2,3-dihydro-1-benzofuran-5-yl]-3-methylurea]: the results for the IC50 in assay [1], in assay [2] and in assay [3] were 4 nM, 1010 nM and 165 nM, respectively.

Regarding `CNC(=O)Nc1ccc2c(c1)C(=O)/C(=C/c1c(-c3c(OC)cccc3OC)[nH]c3ccc(OC)cc13)O2` [Compound 637, 1-[(2Z)-2-{[2-(2,6-dimethoxyphenyl)-5-methoxy-1H-indol-3-yl]methylene}-3-oxo-2,3-dihydro-1-benzofuran-5-yl]-3-methylurea], the half-inhibitory concentration (IC50) in assay [1] turned out to be 2.2 nM; in assay [2], 18.5 nM; in assay [3] it was 35 nM.

As to `COc1ccc2c(c1)c(/C=C1\Oc3ccc(NC(=O)Nc4cccnc4)cc3C1=O)c(C1CCCC1)n2CCN1CCN(C)CC1` [Compound 638, 1-[(2Z)-2-({2-cyclopentyl-5-methoxy-1-[2-(4-methylpiperazin-1-yl)ethyl]-1H-indol-3-yl}methylene)-3-oxo-2,3-dihydro-1-benzofuran-5-yl]-3-pyridin-3-ylurea], the IC50 in assay [1] came out at 3 nM; in assay [2], 214 nM; in assay [3] it was 8 nM.

In the case of `CNC(=O)Nc1cc2c(cc1C)O/C(=C\c1c(C)n(CCN3CCN(C)CC3)c3ccc(OC)cc13)C2=O` [Compound 640, 1-[(2Z)-2-({5-methoxy-2-methyl-1-[2-(4-methylpiperazin-1-yl)ethyl]-1H-indol-3-yl}methylene)-6-methyl-3-oxo-2,3-dihydro-1-benzofuran-5-yl]-3-methylurea], the IC50 was 488 nM in assay [1], 6040 nM in assay [2] and 1450 nM in assay [3].

Take `CNC(=O)Nc1ccc2c(c1)C(=O)/C(=C/c1c(C3CCCCC3)[nH]c3ccc(OC)cc13)O2` [Compound 641, 1-{(2Z)-2-[(2-cyclohexyl-5-methoxy-1H-indol-3-yl)methylene]-3-oxo-2,3-dihydro-1-benzofuran-5-yl}-3-methylurea]: the IC50 in assay [1] came to 1.6 nM; in assay [2] it was 8 nM; in assay [3], 10 nM.

As to `CCn1cc(/C=C2\Oc3ccc(NC(=O)Nc4ccc(C(=O)N5CCN(C)CC5)cc4)cc3C2=O)c2cc(OC)ccc21` [Compound 642, 1-{(2Z)-2-[(1-ethyl-5-methoxy-1H-indol-3-yl)methylene]-3-oxo-2,3-dihydro-1-benzofuran-5-yl}-3-{4-[(4-methylpiperazin-1-yl)carbonyl]phenyl}urea], the results for the IC50 in assay [1], in assay [2] and in assay [3] were 0.95 nM, 8 nM and 2600 nM, respectively.

For the compound `COc1ccc2[nH]cc(/C=C3\Oc4ccc(NC(=O)Nc5ccc(C(=O)N6CCN(C)CC6)cc5)cc4C3=O)c2c1` [Compound 643, 1-{(2Z)-2-[(5-methoxy-1H-indol-3-yl)methylene]-3-oxo-2,3-dihydro-1-benzofuran-5-yl}-3-{4-[(4-methylpiperazin-1-yl)carbonyl]phenyl}urea], the IC50 was 0.9 nM in assay [1], 4 nM in assay [2] and over 4000 nM in assay [3].

`COc1ccc2[nH]c(C3CCCCC3)c(/C=C3\Oc4ccc(NC(=O)Nc5ccc(C(=O)N6CCN(C)CC6)cc5)cc4C3=O)c2c1` [Compound 644, 1-{(2Z)-2-[(2-cyclohexyl-5-methoxy-1H-indol-3-yl)methylene]-3-oxo-2,3-dihydro-1-benzofuran-5-yl}-3-{4-[(4-methylpiperazin-1-yl)carbonyl]phenyl}urea]: the half-inhibitory concentration (IC50) in assay [1] stood at 0.3 nM; in assay [2] it was 2.5 nM; in assay [3], 33 nM.

Take `CCn1c(C2CCCCC2)c(/C=C2\Oc3ccc(NC(=O)Nc4ccc(C(=O)N5CCN(C)CC5)cc4)cc3C2=O)c2cc(OC)ccc21` [Compound 645, 1-{(2Z)-2-[(2-cyclohexyl-1-ethyl-5-methoxy-1H-indol-3-yl)methylene]-3-oxo-2,3-dihydro-1-benzofuran-5-yl}-3-{4-[(4-methylpiperazin-1-yl)carbonyl]phenyl}urea]: the IC50 in assay [1] stood at 1.8 nM; in assay [2], 55 nM; in assay [3], 185 nM.

With `CNC(=O)Nc1ccc2c(c1)C(=O)/C(=C/c1c(-c3c(C)nn(C)c3C)n(CCN3CCN(C)CC3)c3ccc(OC)cc13)O2` [Compound 646, 1-[(2Z)-2-({5-methoxy-1-[2-(4-methylpiperazin-1-yl)ethyl]-2-(1,3,5-trimethyl-1H-pyrazol-4-yl)-1H-indol-3-yl}methylene)-3-oxo-2,3-dihydro-1-benzofuran-5-yl]-3-methylurea], the IC50 in assay [1] was determined as 2.5 nM; in assay [2], 68 nM; in assay [3], 13 nM.

For `CNC(=S)Nc1ccc2c(c1)C(=O)/C(=C/c1c(C)n(CCN3CCN(C)CC3)c3ccc(OC)cc13)O2` [Compound 647, 1-[(2Z)-2-({5-methoxy-2-methyl-1-[2-(4-methylpiperazin-1-yl)ethyl]-1H-indol-3-yl}methylene)-3-oxo-2,3-dihydro-1-benzofuran-5-yl]-3-methylthiourea], the figures for the IC50 in assay [1], in assay [2] and in assay [3] were 10 nM, 4850 nM and 1260 nM, respectively.

On to `CNC(=O)Nc1ccc2c(c1)C(=O)/C(=C/c1c(-c3c(C)nn(C)c3C)n(CCNCCO)c3ccc(OC)cc13)O2` [Compound 648, 1-[(2Z)-2-{[1-{2-[(2-hydroxyethyl)amino]ethyl}-5-methoxy-2-(1,3,5-trimethyl-1H-pyrazol-4-yl)-1H-indol-3-yl]methylene}-3-oxo-2,3-dihydro-1-benzofuran-5-yl]-3-methylurea], for which the IC50 is 2.95 nM in assay [1], 37 nM in assay [2] and 9 nM in assay [3].

For `COc1ccc2c(c1)c(/C=C1\Oc3ccc(NC(=O)Nc4ccc(C(=O)N(C)CCN(C)C)cc4)cc3C1=O)c(C)n2CCN1CCN(C)CC1` [Compound 649, N-[2-(dimethylamino)ethyl]-4-({[(2Z)-2-({5-methoxy-2-methyl-1-[2-(4-methylpiperazin-1-yl)ethyl]-1H-indol-3-yl}methylene)-3-oxo-2,3-dihydro-1-benzofuran-5-yl]carbamoyl}amino)-N-methylbenzamide], the IC50 in assay [1] amounted to 0.4 nM; in assay [2], 19 nM; in assay [3], 31 nM.

For `CCn1c(C)c(/C=C2\Oc3ccc(NC(=O)Nc4ccc(C(=O)N5CCC(N(C)C)CC5)cc4)cc3C2=O)c2cc(OC)ccc21` [Compound 650, 1-(4-{[4-(dimethylamino)piperidin-1-yl]carbonyl}phenyl)-3-{(2Z)-2-[(1-ethyl-5-methoxy-2-methyl-1H-indol-3-yl)methylene]-3-oxo-2,3-dihydro-1-benzofuran-5-yl}urea], the IC50 turned out to be 0.4 nM in assay [1], 3 nM in assay [2] and 31 nM in assay [3].
